Reference: PMC10960024, “Diindoles produced from commensal microbiota metabolites function as endogenous CAR/Nr1i3 ligands” (Nature Communications, 2024)
“And” between values parts separate entries of the source, which are not always exact repeats. Equal entries are not always repeated.

What was measured:
[1] = system: mCAR target genes (cyp2b10, cyp3a11, sult2a1) in mouse liver; assay: qPCR of mCAR target genes in mouse liver after intraperitoneal treatment; type: in vivo
Protocol: (§1) 12–15 week-old C57BL/6 J mice were obtained from Jackson Laboratories and were housed on a standard 12 h light/dark cycle. Nr1i3^−/− mice with C57BL/6 J background were obtained from David Moore’s lab (PMID: 11057673) at Baylor College of Medicine, and used at 13–26 weeks of age. Wild-type male, female and Nr1i3^−/− male mice were used in this study, due to known sex-specific CAR activities. Mice were housed in groups of 2–5 mice per cage on a standard 12 h light/dark cycle and fed with rodent chow diet (Inotiv, Teklad rodent diet 2918). Temperature was maintained at 21 °C with a range of 21–24 °C and humidity at 16–51%. National Institute of Health guidelines for the care and use of laboratory animals were followed with all experiments performed as directed by the Institutional Animal Care and Use Committee at the University of Illinois, Urbana-Champaign (UIUC, IACUC protocol: 22183). Mice were acclimatized to the UIUC mouse facility for 2 weeks prior to experiments. DIM and DIE were dissolved in 5% DMSO in corn oil and injected intraperitoneally at 25 mg/kg once daily for three days. After 4 h of the third injection, mice were sacrificed to collect serum, livers and intestines. TCPOBOP was dissolved in corn oil and injected intraperitoneally at 3 mg/kg once and the livers collected after 3 days for further studies. When used to block CAR activity, 100 mg/kg androstenol was injected intraperitoneally 15 min prior to the first DIM or DIE treatment. RNA from mice livers was isolated using TRIzol (Invitrogen) reagent using the manufacturer’s instructions. 3–5 µg of RNA was used to synthesize cDNA with random primers (NEBioLabs) and Maxima Reverse Transcriptase kits (Thermo Fisher Scientific). cDNA was further diluted, and 50 ng was used for SYBR green (Thermo Fisher Scientific) based qRT-PCR. Relative gene expression was calculated by the delta Ct method and normalized to 36b4 levels as loading controls. qPCR primers for gene expression analysis are listed in Supplementary Table 3.

Liver histology (H&E) = type: in vivo; details: mouse, in vivo
Protocol: as §1, with “3. […]” for “3.”

hCAR LBD-SRC1 protein = target: T1, hCAR LBD-SRC1 protein (Homo sapiens, UniProt Q14994); assay: Fluorescence thermal shift assay (TSA); type: binding; details: for stabilization of CAR-LBD-SRC1 fusion (thermal stability): dose-response 0.4-50 µM; for Tm: diindoles at 12.5 µM, APO Tm 51.5 °C, means of triplicates
T1 construct: The human CAR LBD (Lys^108 – Ser^352) was amplified by PCR from cDNA; HIS6; made in house; host or cells: E. coli BL21(DE3)
T1 sequence (Q14994 108-352): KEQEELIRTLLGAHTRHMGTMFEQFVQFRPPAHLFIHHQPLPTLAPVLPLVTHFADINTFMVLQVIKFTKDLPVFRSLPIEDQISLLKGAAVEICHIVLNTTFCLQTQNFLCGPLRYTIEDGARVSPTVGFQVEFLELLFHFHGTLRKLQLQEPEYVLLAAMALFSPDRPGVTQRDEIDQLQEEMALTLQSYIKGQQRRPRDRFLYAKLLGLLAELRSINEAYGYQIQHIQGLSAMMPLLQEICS
Protocol: Purified hCAR LBD-SRC1 protein was assayed in 137 mM NaCl, 2.7 mM KCl, 10 mM Na2HPO4, and 1.8 mM KH2PO4, 0.5% DMSO, pH 7.4, at a final concentration of 2.2 µM. SYPRO Orange was used at a final concentration of 10× (Invitrogen, S6650). Each sample was divided into three 25 µL replicates. Sample solutions were dispensed into 96-well optical reaction plates (Thermo Fisher Scientific, 4306737) and sealed with optical PCR plate sheets (Thermo Fisher Scientific, AB-1170). TSA experiments were carried out using a QuantStudio 12 K Flex Real Time PCR System (Applied Biosystems). The temperature was ramped up from 25 °C to 95 °C at a rate of 0.3 °C/min, and SYPRO orange fluorescence monitored. Raw fluorescence data and melting temperatures were determined using nonlinear regression curve fitting using GraphPad Prism 9.

hCAR = target: T2, hCAR (Homo sapiens, UniProt Q14994); assay: Bottom-up HDX-MS of hCAR with ligand; type: binding; details: 100 µM ligand
T2 construct: The human CAR LBD (Lys^108 – Ser^352) was amplified by PCR from cDNA; HIS6; made in house; host or cells: E. coli BL21(DE3)
T2 sequence (Q14994 108-352): T1 sequence (Q14994 108-352)
Protocol: Human CAR protein was prepared at 10 µM in 100 mM ammonium acetate pH 7.25 and diluted into either equilibration buffer (10 mM phosphate buffer, pH 7.5) or deuterated reaction buffer (10 mM phosphate buffer, 150 mM NaCl, pH 7.5 in D2O). After labeling times of 1, 10 or 30 min at 25 °C, samples were mixed with equal volumes of quench buffer (100 mM phosphate buffer, pH 2.5) at 0 °C. […] HDX-MS was performed using a commercial Waters HDX system (M-class ACQUITY UPLC and Water Cyclic IMS Mass Spectrometer). Leucine enkephalin was used for mass correction, and all time points were carried out in triplicate. Samples were digested using an Enzymate BEH Pepsin column (2.1 × 30 mm, Waters) at 15 °C. Peptides were desalted on an ACQUITY UPLC BEH C18 VanGuard Pre-column (2.1 × 5 mm, Waters) and separated using an ACQUITY UPLC BEH C18 column (100 × 1 mm, Waters). ProteinLynx Global server (PLGS) and DynamX software was used for peptide identification and deuterium uptake analysis, respectively. PyMOL 2.5 was used for structural visualization.

GST-hCAR-LBD = target: T3, GST-hCAR-LBD (Homo sapiens, UniProt Q14994); assay: LanthaScreen TR-FRET PGC1α coactivator recruitment assay; type: biochemical
T3 construct: GST-hCAR-LBD (5 nM), terbium-labeled anti-GST antibody (5 nM); purchased Invitrogen A15141
T3 sequence (Q14994 109-352 limits assumed): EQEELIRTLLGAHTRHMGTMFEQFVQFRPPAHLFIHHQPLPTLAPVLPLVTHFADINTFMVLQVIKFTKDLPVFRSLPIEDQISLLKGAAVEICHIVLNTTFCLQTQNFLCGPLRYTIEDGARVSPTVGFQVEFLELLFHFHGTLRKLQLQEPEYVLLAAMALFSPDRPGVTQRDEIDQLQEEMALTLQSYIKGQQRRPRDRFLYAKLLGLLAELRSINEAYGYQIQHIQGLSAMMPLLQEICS
Protocol: LanthaScreen^TM TR-FRET hCAR coactivator assays were performed according to manufacturer’s instructions (Invitrogen, A15141). Test compounds were incubated for 2 h at room temperature with GST-hCAR-LBD (5 nM), terbium-labeled anti-GST antibody (5 nM), and Fluorescein-PGC1α coactivator peptide (125 nM). Incubations were performed in four technical replicates. TR-FRET emissions were measured using a Tecan Infinite F200 Fluorescence Microplate Reader. Results were expressed as the ratio of fluorescence intensity at 520 nm (fluorescein emission excited by terbium emissions) and 495 nm (terbium emissions).

GAL4-hCAR LBD = target: T4, GAL4-hCAR LBD (Homo sapiens, UniProt Q14994); assay: HEK293T GAL4-hCAR dual transfection reporter assay with PK11195 (antagonist displacement); type: cell-based; details: for HEK293 GAL4-hCAR EC50: basal reporter activity reduced with 1 µM PK11195
T4 construct: chimeric yeast GAL4 DBD fused to an hCAR LBD; expressed in transfected cells; host or cells: HEK293T (ATCC, CRL-3216)
T4 sequence (Q14994 109-352 limits assumed): T3 sequence (Q14994 109-352 limits assumed)
Excerpt: The GAL4-hCAR, UAS-Luc, pcDNA-GAL4, pGL4-Renilla-Luc and pGEM plasmids were generously provided by Dr. David Mangelsdorf. The GAL4-hCAR plasmid encodes a constitutively expressed chimeric yeast GAL4 DBD fused to an hCAR LBD. The UAS-Luc plasmid encodes a Firefly luciferase reporter under the control of a GAL4 response element. The pcDNA plasmid encodes a constitutively expressed GAL4 DBD and was used as a control vector to determine non-specific luminescence in all HEK293T cellular reporter assays. The pGL4-Renilla-Luc plasmid encodes a constitutively expressed Renilla luciferase reporter and was used as a transfection control in the HEK293T cellular reporter assays.
HEK293T cells (ATCC, CRL-3216) were seeded at a density of 40,000 cells per well in white flat-bottom 96-well microplates (Greiner CellStar, 655073) in Dulbecco’s Modified Eagle Medium (DMEM) (2.5 g/l glucose) supplemented with 10% stripped fetal bovine serum with 100 units/ml of penicillin and incubated for 24 h at 37 °C. Transfection was carried out using 0.3 µL/well of Lipofectamine 2000 (Thermo Fisher Scientific, 11668019). Cells were transfected with 10 ng/well of either pcDNA or GAL4-hCAR, 50 ng/well of UAS-Luc, 5 ng/well of pGL4-Renilla-Luc, and 85 ng/well of pGEM for a total of 150 ng/well of DNA. […] Cells were incubated for 16-hours to allow build-up of luciferase and then processed using the Dual-Glo Luciferase Assay System (Promega, E2940) as per the manufacturer’s instructions. Incubations were performed in four technical replicates.

[2] = target: T5, His-tagged CAR-LBD-SRC1 fusion protein (Homo sapiens, UniProt Q14994); assay: Isothermal titration calorimetry (ITC); type: binding; details: 25 °C; ligand 50 μM; mean of two independent experiments
T5 construct: The human CAR LBD (Lys^108 – Ser^352) was amplified by PCR from cDNA; HIS6; made in house; host or cells: E. coli BL21(DE3)
T5 sequence (Q14994 108-352): T1 sequence (Q14994 108-352)
Protocol: Purified hCAR-SRC1 protein (200–250 µM) was dissolved in 120 μL of PBS and supplemented with 0.5% DMSO. All experiments were performed in a MicroCal Auto-iTC200 instrument (Malvern Panalytical, Marlvern, United Kingdom) at 25 °C. Ligands were used at a concentration of 50 μM. Protein was titrated into cells in a series of 19 injections (injection 1 = 0.4 µL, injection 2–19 = 2 µL) 180 s apart. Control experiments performed by injection of the potein into […] yielded insignificant heats of dilution, and heat responses were subtracted. Integrated heat effects were analyzed using Microcal Origin 7 software (Malvern Instruments).

[3] = Liver-to-body weight ratio after treatment; type: in vivo; details: post-treatment, compared to control
Protocol: as §1

C[C@]12CC[C@@H](O)C[C@@H]1CC[C@@H]1[C@@H]2CC[C@]2(C)C=CC[C@@H]12 [And, androstenol, reference compound]
CAR target gene expression after pre-treatment with inverse agonist ([1]; 100 mg/kg i.p. 15 min prior to first DIM or DIE treatment): greatly reduced target gene expression
sult2a1 expression in liver ([1]; WT or Nr1i3-/- mice): did not show significant responses
cyp3a11 expression in liver ([1]; mouse liver, with or without And pre-treatment): increase rather than a decrease
liver histology (H&E) findings (Liver histology (H&E)): occasional focal inflammation and mild cholangitis

CC(C)(c1ccc(O)cc1)c1ccc(O)cc1 [BPA, bisphenol A, reference compound]
stabilization of CAR-LBD-SRC1 fusion (thermal stability) (hCAR LBD-SRC1 protein): preferential stabilization

Clc1ccc(-c2nc3sccn3c2C=NOCc2ccc(Cl)c(Cl)c2)cc1 [CITCO, 6-(4-chlorophenyl)imidazo[2,1-b][1,3]thiazole-5-carbaldehyde-O-(3,4-dichlorobenzyl)oxime, reference compound]
deuterium uptake change, residues 235–243 (H12/AF2) (hCAR): decreased deuterium uptake
deuterium uptake difference, amino acids 217–234 (H11) (hCAR): > 20%
difference in deuterium uptake compared to apo hCAR, amino acids 51–65 (H3) (hCAR): > 20%
stabilization of CAR-LBD-SRC1 fusion (thermal stability) (hCAR LBD-SRC1 protein): no effect on thermal stability
PGC1α cofactor recruitment (GST-hCAR-LBD): able to increase PGC1α recruitment beyond ‘constitutive’ levels

CCC(c1c[nH]c2ccccc12)c1c[nH]c2ccccc12 [DIP, 3,3’-diindolylpropane]
Tm (hCAR LBD-SRC1 protein): 59.1 °C
HEK293 GAL4-hCAR EC50 (GAL4-hCAR LBD): Ambiguous
Kd [2]: 6000 nM

Clc1cnc(Oc2ccc(Oc3ncc(Cl)cc3Cl)cc2)c(Cl)c1 [TCPOBOP, 1,4-bis-[2-(3,5,-dichloropyridyloxy)] benzene, reference compound]
mCAR target gene activation ([1]; WT male mice, 3 mg/kg i.p. once, livers after 3 days): highly activate mCAR target genes
liver weight / liver-to-body weight ratio [3]: significantly increased

CC(C)C(c1c[nH]c2ccccc12)c1c[nH]c2ccccc12 [iDIB, 3,3’-diindolyl-iso-butane]
Tm (hCAR LBD-SRC1 protein): 58.3 °C
HEK293 GAL4-hCAR EC50 (GAL4-hCAR LBD): Ambiguous

CCCC(c1c[nH]c2ccccc12)c1c[nH]c2ccccc12 [nDIB]
Tm (hCAR LBD-SRC1 protein): 57.7 °C
EC50 (GAL4-hCAR LBD; read-out: HEK293 GAL4-hCAR EC50): 2360 nM
Kd [2]: 790 nM and 780 nM
